# Laboratory results as given in article PMC11714206, “Massively Parallel Screening of Toll/Interleukin‐1 Receptor (TIR)‐Derived Peptides Reveals Multiple Toll‐Like Receptors (TLRs)‐Targeting Immunomodulatory Peptides” (Advanced Science, 2024).
# Molecular target: T1, MyD88^TIR (Homo sapiens, UniProt Q99836)
# T1 construct: MyD88 (residues 148–296); 6xHis; made in house; host or cells: E. coli BL21 (DE3)
# Assay: T‐Surf phage library (P8 and P3) selection against MyD88^TIR, four rounds, NGS read counts
# Format: binding
# Conditions: for P3_MyD88 Rank (after) / P3_MyD88 Rank (before): P3 library; for Population: 4th round of selection against MyD88 TIR, share of NGS reads; for P8_MyD88 Rank (after) / P8_MyD88 Rank (before): P8 library
# In short: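 Read counts come from NGS of phage pools after the fourth selection round, barcoded by 20-cycle PCR and filtered for quality ≥30. Each round: phage incubated 1 h at RT on immobilised TIR protein (5 µg mL^−1, BSA-blocked), washed, HCl-eluted and amplified in E. coli TG1.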
# [1] = selection against MyD88, rank after grouping
# [2] = selection against MyD88, rank before grouping
# [3] = P3_MyD88: rank by count after grouping
# [4] = P3_MyD88: rank by count before grouping
# [5] = P8_MyD88: rank by count after grouping
# [6] = P8_MyD88: rank by count before grouping
# [7] = P8_MyD88 pool: P8 T-Surf phage library
# [8] = selection against MyD88, rank by count after grouping
# [9] = selection against MyD88, rank by count before grouping
# [10] = P8_MyD88: rank by NGS read count after grouping
# [11] = P8_MyD88: rank by NGS read count before grouping
# [12] = P3_MyD88 pool: P3 T-Surf phage library
# [13] = selection against MyD88 TIR, rank by count after grouping
# [14] = selection against MyD88 TIR, rank by count before grouping
# [15] = 4R selection against MyD88, rank after grouping
# [16] = 4R selection against MyD88, rank before grouping
# T1 sequence (Q99836 148-296): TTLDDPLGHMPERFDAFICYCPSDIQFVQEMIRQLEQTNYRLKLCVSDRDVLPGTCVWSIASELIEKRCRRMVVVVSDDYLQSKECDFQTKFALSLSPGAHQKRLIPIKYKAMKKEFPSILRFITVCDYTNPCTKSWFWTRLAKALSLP
sequence,measurement,setting,value
LEWGEPIVLEKQRSVT,P3_MyD88 Rank (after),[1],563
same,P3_MyD88 Rank (before),[2],2328
QYSDTLLEHTANFRM,Rank (after),[3],392
same,Rank (before),[4],2842
QWALEELRLIMELHSV,Rank (after),[5],158
same,Rank (before),[6],175
same,Population,[7],0.00809%
DPQDLDWLYERPVSQF,P8_MyD88 Rank (after),[1],552
same,P8_MyD88 Rank (before),[2],2816
AWTDDPVGQLFFWESL,Rank (after),[5],168
same,Rank (before),[6],189
same,Population,[7],0.00655%
WALDELLQILRARDLF,P8_MyD88 Rank (after),[8],727
same,P8_MyD88 Rank (before),[9],1465
GFIDNLYQALANMGIH,Rank (after),[5],122
same,Rank (before),[6],129
same,Population,[7],0.0143%
THSHNAVPAAANLSGW,Rank (after),[3],404
same,Rank (before),[4],3289
LKVESCRQALEKTGKL,Rank (after),[3],181
same,Rank (before),[4],2473
SSICEGLWRLLELSKK,Rank (after),[3],453
same,Rank (before),[4],3276
DWVWVYRLPNLEGPAG,Rank (after),[10],979
same,Rank (before),[11],2403
SSFREGLCRLLELSKK,Population,[12],0.0032%
DPQDLDRFYERLLSLL,Rank (after),[5],428
same,Rank (before),[6],2840
DTILEKVQSIAPELLR,Rank (after),[3],401
same,Rank (before),[4],2092
YLKWGYPRFWDRQRFP,P3_MyD88 Rank (after),[13],282
same,P3_MyD88 Rank (before),[14],1431
GEDTRYTYRPSACDP,P3_MyD88 Rank (after),[8],730
same,P3_MyD88 Rank (before),[9],1850
LGYQWIDWEFFVGIED,P8_MyD88 Rank (after),[8],756
same,P8_MyD88 Rank (before),[9],3321
DHHLDLPWGKAKKPEILG,P3_MyD88 Rank (after),[1],487
same,P3_MyD88 Rank (before),[2],1999
NELVHEWSSKLMSLGV,P3_MyD88 Rank (after),[13],287
same,P3_MyD88 Rank (before),[14],3397
DPQVLERKYERLVKLV,P8_MyD88 Rank (after),[8],718
same,P8_MyD88 Rank (before),[9],2650
EIVKFVLAKLVHLEHP,Rank (after),[3],409
same,Rank (before),[4],2224
FDASSSWALDELLRILY,Rank (after),[5],404
same,Rank (before),[6],813
AVDIETEKIQTPLKNA,Rank (after),[3],157
same,Rank (before),[4],1891
WPQDPQDLGWFYERLE,Rank (after),[5],416
same,Rank (before),[6],899
DHHLDLPRGKAIKPEFW,P3_MyD88 Rank (after),[13],241
same,P3_MyD88 Rank (before),[14],951
EWMREQLRPPLKERLP,Rank (after),[3],421
same,Rank (before),[4],2179
GLYDELFMTETDERKR,Rank (after),[3],439
same,Rank (before),[4],1851
NDLVHGWSSKANSLVG,Rank (after),[3],136
same,Rank (before),[4],3388
NGQSSRFKDDADLVGQ,P3_MyD88 Rank (after),[8],678
same,P3_MyD88 Rank (before),[9],3337
YASSWWALEELLRILY,P8_MyD88 Rank (after),[1],568
same,P8_MyD88 Rank (before),[2],1849
LSRVTSVHDARGLGGI,P3_MyD88 Rank (after),[1],564
same,P3_MyD88 Rank (before),[2],2395
DWVWVYLLPNLEGPEG,P8_MyD88 Rank (after),[15],641
same,P8_MyD88 Rank (before),[16],2402
PQDLVWFFEGLVSLIL,Rank (after),[10],952
same,Rank (before),[11],3420
NELVHVWSSKANSLVG,P8_MyD88 Rank (after),[8],696
same,P8_MyD88 Rank (before),[9],3874
SSFREGLWRLLELSET,Rank (after),[3],145
same,Rank (before),[4],1199
ASSSFALDQLSYFLSL,Rank (after),[5],189
same,Rank (before),[6],243
YILYEDQTIKFVFRDFIQEL,Rank (after),[5],385
same,Rank (before),[6],988
WALDELLKILCANKTM,P8_MyD88 Rank (after),[8],766
same,P8_MyD88 Rank (before),[9],1477
SELREVADGSVSPLEM,P3_MyD88 Rank (after),[13],192
same,P3_MyD88 Rank (before),[14],3063
DSLFWDRLLYSLHVTD,Population,[7],0.00732%
YLRADDSCSWEKLRYA,P8_MyD88 Rank (after),[8],694
same,P8_MyD88 Rank (before),[9],2043
VANILGYHWIAREHFV,Rank (after),[5],474
same,Rank (before),[6],2164
YAASPWWFDELLQIA,P8_MyD88 Rank (after),[15],633
same,P8_MyD88 Rank (before),[16],1740
LSRVPSGHVIPGFVAI,P3_MyD88 Rank (after),[1],529
same,P3_MyD88 Rank (before),[2],2378
LGYKRIDWEYFVGIED,P8_MyD88 Rank (after),[1],573
same,P8_MyD88 Rank (before),[2],3354
SSFREGLWRLVYLSKK,P3_MyD88 Rank (after),[1],538
same,P3_MyD88 Rank (before),[2],3160
YTALTNSGFHTFRDHE,P3_MyD88 Rank (after),[13],227
same,P3_MyD88 Rank (before),[14],1676
LSRVPSVHDFRGLMSI,Rank (after),[3],416
same,Rank (before),[4],2389
SENYASSSWALTELVH,P3_MyD88 Rank (after),[8],723
same,P3_MyD88 Rank (before),[9],2958
DPQGRDWFYERLVSLF,Rank (after),[5],394
same,Rank (before),[6],2672
YTALTNSGVHTFLDND,P3_MyD88 Rank (after),[13],206
same,P3_MyD88 Rank (before),[14],1688
PQDLDWFYDRLVSLIL,P8_MyD88 Rank (after),[15],589
same,P8_MyD88 Rank (before),[16],3431
LKVENWRQAMEKAGKL,Rank (after),[3],176
same,Rank (before),[4],2525
PQVLGWFYERLVSLIL,Rank (after),[5],447
same,Rank (before),[6],3414
SENYATSPWALEKAGKL,Rank (after),[3],423
same,Rank (before),[4],2984
TSTWALDELWLILEQR,Population,[7],0.0262%
RFGGDTFLEYLVLISM,P8_MyD88 Rank (after),[8],765
same,P8_MyD88 Rank (before),[9],3753
LGYHWIDWAYFVGIEE,P8_MyD88 Rank (after),[13],242
same,P8_MyD88 Rank (before),[14],3250
QGDPSYRLTLHYRDVN,P3_MyD88 Rank (after),[15],591
same,P3_MyD88 Rank (before),[16],2866
LGYQGIDGEYFVGIED,P8_MyD88 Rank (after),[15],617
same,P8_MyD88 Rank (before),[16],3328
DHHLDLPRGKAIKQEILG,Population,[12],0.00495%
DPQDLALFYERLVSLF,P8_MyD88 Rank (after),[13],251
same,P8_MyD88 Rank (before),[14],2727
SSFRERLWRLLELIKK,P3_MyD88 Rank (after),[15],644
same,P3_MyD88 Rank (before),[16],3246
